Laboratory results reported in patent US20240409585A1, “MACROCYCLIC IMMUNOMODULATORS” (priority 2021, published 2024).
Bridge positions count the residues as written; N and C are the ends. Square brackets hold non-standard residues; d marks the D form. Peptide text beside a SMILES is read from it. * marks the point of attachment. ξ: configuration not given here. Phe(3-CF3) = N[C@@H](Cc1cccc(C(F)(F)F)c1)C(=O)O; Phe(4-COOH) = N[C@@H](Cc1ccc(C(=O)O)cc1)C(=O)O; Bip = N[C@@H](Cc1ccc(-c2ccccc2)cc1)C(=O)O; Phe(3-Me) = Cc1cccc(C[C@H](N)C(=O)O)c1; Phe(4-I) = N[C@@H](Cc1ccc(I)cc1)C(=O)O; NMeY = CN[C@@H](Cc1ccc(O)cc1)C(=O)O; Val(3-OH) = CC(C)(O)[C@H](N)C(=O)O; aIle = CC[C@@H](C)[C@H](N)C(=O)O; 3Pal = N[C@@H](Cc1cccnc1)C(=O)O; 4Pal = N[C@@H](Cc1ccncc1)C(=O)O; Cha = N[C@@H](CC1CCCCC1)C(=O)O; Cit = NC(=O)NCCC[C@H](N)C(=O)O; Ile(3ξ) = CCC(C)[C@H](N)C(=O)O; Thr(3ξ) = CC(O)[C@H](N)C(=O)O; Carboxymethyl = O=C(O)C*; NMeA = CN[C@@H](C)C(=O)O; Orn = NCCC[C@H](N)C(=O)O; Dab = NCC[C@H](N)C(=O)O; Dap = NC[C@H](N)C(=O)O; ξV = CC(C)C(N)C(=O)O

The compounds below were run against T1, PE-labeled human PD-L1-Ig binding to Jurkat cell line over-expressing human PD-1 (Jurkat-PD-1) (Homo sapiens, UniProt Q15116) (assay: Jurkat-PD-1 Cell Binding High-Content Screening Assay (CBA): Method 1). Details: Jurkat-hPD-1 cells, PE-labeled PD-L1-Ig 20 nM final; read-out: Jurkat HPDL1 PD1 IC50 (uM) (Method 1).
T1 construct: expressed in transfected cells; host or cells: Jurkat
T1 sequence (Q15116 25-288): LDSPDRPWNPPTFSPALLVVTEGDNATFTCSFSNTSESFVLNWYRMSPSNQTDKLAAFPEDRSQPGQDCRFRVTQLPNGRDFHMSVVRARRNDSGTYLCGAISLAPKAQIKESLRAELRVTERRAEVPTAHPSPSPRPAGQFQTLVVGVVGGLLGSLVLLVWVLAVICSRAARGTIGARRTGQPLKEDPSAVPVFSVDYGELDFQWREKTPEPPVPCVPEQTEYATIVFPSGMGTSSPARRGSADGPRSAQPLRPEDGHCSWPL

Structure (SMILES)	IC50 [µM]
CC(C)C[C@@H]1NC(=O)[C@H](CCCNC(=N)N)NC(=O)[C@@H](CC(C)C)NC(=O)[C@H](C)N(C)C(=O)[C@H](CCCNC(=N)N)NC(=O)[C@H](Cc2ccc(I)cc2)NC(=O)[C@H](C(C)C)NC(=O)[C@H](Cc2c[nH]c3ccccc23)NC(=O)[C@H](CC(=O)O)NC(=O)[C@H](Cc2ccc(O)cc2)NC(=O)[C@H](Cc2ccccc2)NC(=O)CSC[C@@H](C(=O)N[C@@H](C)C(N)=O)NC(=O)[C@H]([C@@H](C)O)NC(=O)[C@H](C(C)C)NC1=O [Compound 1089] ({CH2CO}-FYDWV[Phe(4-I)]R[NMeA][dL]RLVTCA-NH2; thioether N-14)	0.94
CC(C)C[C@H]1NC(=O)[C@H](C)N(C)C(=O)[C@H](CCCN)NC(=O)[C@H](Cc2ccc(-c3ccccc3)cc2)NC(=O)[C@H](C(C)C)NC(=O)[C@H](Cc2c[nH]c3ccccc23)NC(=O)[C@H](CC(=O)O)NC(=O)[C@H](Cc2ccc(O)cc2)NC(=O)[C@H](CC(N)=O)NC(=O)CSC[C@@H](C(=O)N[C@@H](C)C(N)=O)NC(=O)[C@H]([C@@H](C)O)NC(=O)[C@H](C(C)C)NC(=O)[C@H](CC2CCCCC2)NC(=O)[C@H](CCCNC(=N)N)NC1=O [Compound 1276] ({CH2CO}-NYDWV[Bip][Orn][NMeA][dL]R[Cha]VTCA-NH2; thioether N-14)	0.03
CC(C)C[C@@H]1NC(=O)[C@H](CCN)NC(=O)[C@@H](CC(C)C)NC(=O)[C@H](C)N(C)C(=O)[C@H](CCCNC(=N)N)NC(=O)[C@H](Cc2ccc(-c3ccccc3)cc2)NC(=O)[C@H](C(C)C)NC(=O)[C@H](Cc2c[nH]c3ccccc23)NC(=O)[C@H](CC(=O)O)NC(=O)[C@H](Cc2ccncc2)NC(=O)[C@H](Cc2cccnc2)NC(=O)CSC[C@@H](C(=O)N[C@@H](C)C(N)=O)NC(=O)[C@H]([C@@H](C)O)NC(=O)[C@H](C(C)C)NC1=O [Compound 1147] ({CH2CO}-[3Pal][4Pal]DWV[Bip]R[NMeA][dL][Dab]LVTCA-NH2; thioether N-14)	0.02
Cc1cccc(C[C@@H]2NC(=O)[C@H](CC(=O)O)NC(=O)[C@H](Cc3ccc(OCC(=O)O)cc3)NC(=O)[C@H]([C@@H](C)O)NC(=O)CSC[C@@H](C(N)=O)NC(=O)[C@H](CCC(=O)O)NC(=O)[C@H](C(C)C)NC(=O)[C@H](CC3CCCCC3)NC(=O)[C@H](CC(N)=O)NC(=O)[C@@H](CC(C)C)NC(=O)[C@H](C)N(C)C(=O)[C@H](Cc3ccc(OCC(=O)O)cc3)NC(=O)[C@H](Cc3ccc(-c4ccccc4)cc3)NC(=O)[C@H](Cc3ccc(OCC(=O)O)cc3)NC2=O)c1 [Compound 1679] ({CH2CO}-TY(Carboxymethyl)D[Phe(3-Me)]Y(Carboxymethyl)[Bip]Y(Carboxymethyl)[NMeA][dL]N[Cha]VEC-NH2; thioether N-14)	0.23
CC(C)C[C@@H]1NC(=O)[C@H](CCCNC(=N)N)NC(=O)[C@@H](CC(C)C)NC(=O)[C@H](C)N(C)C(=O)[C@H](CCCNC(=N)N)NC(=O)[C@H](Cc2ccc(-c3ccccc3)cc2)NC(=O)[C@H](C(C)C)NC(=O)[C@H](Cc2cccc(C(F)(F)F)c2)NC(=O)[C@H](CC(=O)O)NC(=O)[C@H](Cc2ccc(O)cc2)NC(=O)[C@H](CC(N)=O)NC(=O)CSC[C@@H](C(=O)N[C@@H](C)C(N)=O)NC(=O)[C@H]([C@@H](C)O)NC(=O)[C@H](C(C)C)NC1=O [Compound 1198] ({CH2CO}-NYD[Phe(3-CF3)]V[Bip]R[NMeA][dL]RLVTCA-NH2; thioether N-14)	0.06
CC(C)C[C@@H]1NC(=O)[C@H](CCCN)NC(=O)[C@@H](CC(C)C)NC(=O)[C@H](C)N(C)C(=O)[C@H](CCC(=O)O)NC(=O)[C@H](Cc2ccc(-c3ccccc3)cc2)NC(=O)[C@H](C(C)C)NC(=O)[C@H](Cc2c[nH]c3ccccc23)NC(=O)[C@H](CC(=O)O)NC(=O)[C@H](Cc2ccc(O)cc2)NC(=O)[C@H](Cc2ccccc2)NC(=O)CSC[C@@H](C(=O)N[C@@H](CCC(=O)O)C(N)=O)NC(=O)[C@H]([C@@H](C)O)NC(=O)[C@H](C(C)C)NC1=O [Compound 1163] ({CH2CO}-FYDWV[Bip]E[NMeA][dL][Orn]LVTCE-NH2; thioether N-14)	0.04
Cc1cccc(C[C@@H]2NC(=O)[C@H](CC(=O)O)NC(=O)[C@H](Cc3ccc(OCC(=O)O)cc3)NC(=O)[C@H](Cc3ccncc3)NC(=O)CSC[C@@H](C(=O)N[C@@H](CCN)C(N)=O)NC(=O)[C@H](CCC(=O)O)NC(=O)[C@H](C(C)(C)O)NC(=O)[C@H](CC3CCCCC3)NC(=O)[C@H](CCN)NC(=O)[C@@H](CC(C)C)NC(=O)[C@H](C)N(C)C(=O)[C@H](Cc3ccc(OCC(=O)O)cc3)NC(=O)[C@H](Cc3ccc(-c4ccccc4)cc3)NC(=O)[C@H](Cc3ccc(OCC(=O)O)cc3)NC2=O)c1 [Compound 2188] ({CH2CO}-[4Pal]Y(Carboxymethyl)D[Phe(3-Me)]Y(Carboxymethyl)[Bip]Y(Carboxymethyl)[NMeA][dL][Dab][Cha][Val(3-OH)]EC[Dab]-NH2; thioether N-14)	0.02
CC[C@@H](C)[C@@H]1NC(=O)[C@H](Cc2ccc(-c3ccccc3)cc2)NC(=O)[C@H](CC(C)C)NC(=O)[C@H](Cc2c[nH]c3ccccc23)NC(=O)[C@H](CC(=O)O)NC(=O)[C@H](Cc2ccc(C(=O)O)cc2)NC(=O)[C@H](Cc2ccc(OCC(=O)O)cc2)NC(=O)CSC[C@@H](C(=O)N[C@@H](CCCCN)C(N)=O)NC(=O)[C@H](CN)NC(=O)C(C(C)C)NC(=O)[C@H](CC(C)C)NC(=O)[C@H](CC(N)=O)NC(=O)[C@@H](CC(C)C)NC(=O)[C@H](C)N(C)C1=O (stereo partly drawn) [Compound 2108] ({CH2CO}-Y(Carboxymethyl)[Phe(4-COOH)]DWL[Bip][aIle][NMeA][dL]NL[ξV][Dap]CK-NH2; thioether N-14)	0.11

Results, then the compound that gave them:

IC50 [µM]	Structure (SMILES)
0.01	CC(C)C[C@@H]1NC(=O)[C@H](Cc2c[nH]c3ccccc23)NC(=O)[C@H](CC(=O)O)NC(=O)[C@H](Cc2ccc(C(=O)O)cc2)NC(=O)[C@H](Cc2ccccc2)NC(=O)CSC[C@@H](C(=O)N[C@@H](C)C(N)=O)NC(=O)[C@H](CO)NC(=O)[C@H](C(C)C)NC(=O)[C@H](CC(C)C)NC(=O)[C@H](CC(N)=O)NC(=O)[C@@H](C)NC(=O)[C@H](C)N(C)C(=O)[C@H](C(C)C)NC(=O)[C@H](Cc2ccc(-c3ccccc3)cc2)NC1=O [Compound 1731] ({CH2CO}-F[Phe(4-COOH)]DWL[Bip]V[NMeA][dA]NLVSCA-NH2; thioether N-14)
0.02	CC(C)C[C@@H]1NC(=O)[C@H](CCN)NC(=O)[C@@H](CC(C)C)NC(=O)[C@H](C)N(C)C(=O)[C@H](CCCNC(=N)N)NC(=O)[C@H](Cc2ccc(-c3ccccc3)cc2)NC(=O)[C@H](C(C)C)NC(=O)[C@H](Cc2c[nH]c3ccccc23)NC(=O)[C@H](CC(=O)O)NC(=O)[C@H](Cc2ccc(O)cc2)NC(=O)[C@H](CCN)NC(=O)CSC[C@@H](C(=O)N[C@@H](C)C(N)=O)NC(=O)[C@H]([C@@H](C)O)NC(=O)[C@H](C(C)C)NC1=O [Compound 1340] ({CH2CO}-[Dab]YDWV[Bip]R[NMeA][dL][Dab]LVTCA-NH2; thioether N-14)
0.01	Cc1cccc(C[C@@H]2NC(=O)[C@H](CC(=O)O)NC(=O)[C@H](Cc3ccc(OCC(=O)O)cc3)NC(=O)[C@H](Cc3ccncc3)NC(=O)CSC[C@@H](C(=O)N[C@@H](C)C(N)=O)NC(=O)[C@H]([C@@H](C)O)NC(=O)[C@H](C(C)C)NC(=O)[C@H](CC(C)C)NC(=O)[C@H](CCN)NC(=O)[C@@H](CC(C)C)NC(=O)[C@H](C)N(C)C(=O)[C@H](CCCNC(N)=O)NC(=O)[C@H](Cc3ccc(-c4ccccc4)cc3)NC(=O)[C@H](C(C)C)NC2=O)c1 [Compound 1421] ({CH2CO}-[4Pal]Y(Carboxymethyl)D[Phe(3-Me)]V[Bip][Cit][NMeA][dL][Dab]LVTCA-NH2; thioether N-14)
0.01	CCC(C)[C@@H]1NC(=O)[C@H](Cc2ccc(-c3ccccc3)cc2)NC(=O)[C@H](C(C)C)NC(=O)[C@H](Cc2cccc(C)c2)NC(=O)[C@H](CC(=O)O)NC(=O)[C@H](Cc2ccc(OCC(=O)O)cc2)NC(=O)[C@H](C(C)O)NC(=O)CSC[C@@H](C(=O)N[C@@H](CCCN)C(N)=O)NC(=O)[C@H](C(C)O)NC(=O)[C@H](C(C)(C)O)NC(=O)[C@H](CC2CCCCC2)NC(=O)[C@H](CCN)NC(=O)[C@@H](CC(C)C)NC(=O)[C@H](C)N(C)C1=O (stereo partly drawn) [Compound 2147] ({CH2CO}-[Thr(3ξ)]Y(Carboxymethyl)D[Phe(3-Me)]V[Bip][Ile(3ξ)][NMeA][dL][Dab][Cha][Val(3-OH)][Thr(3ξ)]C[Orn]-NH2; thioether N-14)
0.01	CC(C)C[C@@H]1NC(=O)[C@H](CCN)NC(=O)[C@@H](CC(C)C)NC(=O)[C@H](C)N(C)C(=O)[C@H](C(C)C)NC(=O)[C@H](Cc2ccc(-c3ccccc3)cc2)NC(=O)[C@H](C(C)C)NC(=O)[C@H](Cc2c[nH]c3ccccc23)NC(=O)[C@H](CC(=O)O)NC(=O)[C@H](Cc2ccc(C(=O)O)cc2)NC(=O)[C@H](Cc2ccc(OCC(=O)O)cc2)NC(=O)CSC[C@@H](C(=O)N[C@@H](C)C(N)=O)NC(=O)[C@H]([C@@H](C)O)NC(=O)[C@H](C(C)C)NC1=O [Compound 1570] ({CH2CO}-Y(Carboxymethyl)[Phe(4-COOH)]DWV[Bip]V[NMeA][dL][Dab]LVTCA-NH2; thioether N-14)
0.01	Cc1cccc(C[C@@H]2NC(=O)[C@H](CC(=O)O)NC(=O)[C@H](Cc3ccc(OCC(=O)O)cc3)NC(=O)[C@H](Cc3ccncc3)NC(=O)CSC[C@@H](C(=O)N[C@@H](CCN)C(N)=O)NC(=O)[C@H](CO)NC(=O)[C@H](C(C)(C)O)NC(=O)[C@H](CC3CCCCC3)NC(=O)[C@H](CCN)NC(=O)[C@@H](CC(C)C)NC(=O)[C@H](C)N(C)C(=O)[C@H](CCCNC(N)=O)NC(=O)[C@H](Cc3ccc(-c4ccccc4)cc3)NC(=O)[C@H](Cc3ccc(OCC(=O)O)cc3)NC2=O)c1 [Compound 2201] ({CH2CO}-[4Pal]Y(Carboxymethyl)D[Phe(3-Me)]Y(Carboxymethyl)[Bip][Cit][NMeA][dL][Dab][Cha][Val(3-OH)]SC[Dab]-NH2; thioether N-14)
0.01	CC(C)C[C@@H]1NC(=O)[C@H](CCN)NC(=O)[C@@H](CC(C)C)NC(=O)[C@H](Cc2ccc(O)cc2)N(C)C(=O)[C@H](C(C)C)NC(=O)[C@H](Cc2ccc(-c3ccccc3)cc2)NC(=O)[C@H](C(C)C)NC(=O)[C@H](Cc2c[nH]c3ccccc23)NC(=O)[C@H](CC(=O)O)NC(=O)[C@H](Cc2ccc(O)cc2)NC(=O)[C@H](CC(N)=O)NC(=O)CSC[C@@H](C(=O)N[C@@H](C)C(N)=O)NC(=O)[C@H]([C@@H](C)O)NC(=O)[C@H](C(C)C)NC1=O [Compound 1364] ({CH2CO}-NYDWV[Bip]V[NMeY][dL][Dab]LVTCA-NH2; thioether N-14)
